Laboratory results from article PMC3759162 (Cellular and molecular life sciences : CMLS, 2012).

Tests used:
[1] = molecular target: T1, NSBP-1 (D2096.8; nematode sterol-binding protein 1) (Caenorhabditis elegans, UniProt Q19007); experiment: competition with […] [3H]cholesterol on GST fusion protein
T1 sequence (Q19007 1-316): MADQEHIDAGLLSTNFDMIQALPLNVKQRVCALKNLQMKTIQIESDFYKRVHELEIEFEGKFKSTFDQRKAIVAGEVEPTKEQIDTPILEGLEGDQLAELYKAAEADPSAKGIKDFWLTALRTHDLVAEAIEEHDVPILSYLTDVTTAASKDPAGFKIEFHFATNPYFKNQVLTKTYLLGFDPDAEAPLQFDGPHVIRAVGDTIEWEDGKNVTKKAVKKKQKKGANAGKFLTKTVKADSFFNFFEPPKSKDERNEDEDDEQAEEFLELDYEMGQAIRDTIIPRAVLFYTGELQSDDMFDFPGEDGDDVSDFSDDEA

[2] = molecular target: T1, NSBP-1 (D2096.8; nematode sterol-binding protein 1)

Row | IC50 [1] [nM] | Kd [2] [nM] | Compound
1 | ~630 | – | C[C@H](CCCC(C)(C)O)[C@H]1CC[C@H]2[C@@H]3CC=C4C[C@@H](O)CC[C@]4(C)[C@H]3CC[C@]12C [25-hydroxycholesterol]
2 | 40 ± 5.6 | 87.5 ± 27.7 | CC(C)CCC[C@@H](C)[C@H]1CC[C@H]2[C@@H]3CC=C4C[C@@H](O)CC[C@]4(C)[C@H]3CC[C@]12C [cholesterol]
